# From ChEMBL document CHEMBL1201862, “PubChem BioAssay data set” (2004)
#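 Protocol summary: plate cells (96-well), add compound at 5 concentrations, incubate 48 h, interpolate endpoints linearly. The concentration for 50% growth inhibition is given as GI50.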 Calls of active or inactive are those of the source. Rule as the data show it: active = GI50 up to about 1.1 µM and inactive = higher.
# Columns and labels:
# Experiment in all cases: growth of human tumour cells (NCI), 48 h
# A549 = tested on: A549
# CAKI-1 = tested on: CAKI-1
# CCRF-CEM = tested on: CCRF-CEM
# COLO 205 = tested on: COLO 205
# EKVX = tested on: EKVX
# HCC 2998 = tested on: HCC 2998
# HCT-116 = tested on: HCT-116
# HCT-15 = tested on: HCT-15
# HL-60 = tested on: HL-60
# HOP-62 = tested on: HOP-62
# HT-29 = tested on: HT-29
# K562 = tested on: K562
# MDA-MB-231 = tested on: MDA-MB-231
# NCI-H23 = tested on: NCI-H23
# SF-539 = tested on: SF-539
# SK-MEL-2 = tested on: SK-MEL-2
# SNB-75 = tested on: SNB-75
# UACC-257 = tested on: UACC-257
# OVCAR-4 = tested on: OVCAR-4
# SR = tested on: SR
SMILES,GI50 (A549),GI50 (CAKI-1),GI50 (CCRF-CEM),GI50 (COLO 205),GI50 (EKVX),GI50 (HCC 2998),GI50 (HCT-116),GI50 (HCT-15) [µM],GI50 (HL-60),GI50 (HOP-62),GI50 (HT-29),GI50 (K562),GI50 (MDA-MB-231),GI50 (NCI-H23),GI50 (SF-539),GI50 (SK-MEL-2),GI50 (SNB-75),GI50 (UACC-257),GI50 (OVCAR-4),GI50 (SR)
[O-][n+]1nc(N2CCOCC2)nc2ccccc21,> 100 µM (inactive),> 100 µM (inactive),> 100 µM (inactive),> 100 µM (inactive),> 100 µM (inactive),> 100 µM (inactive),> 100 µM (inactive),> 100,> 100 µM (inactive),> 100 µM (inactive),> 100 µM (inactive),> 100 µM (inactive),> 100 µM (inactive),> 100 µM (inactive),> 100 µM (inactive),> 100 µM (inactive),> 100 µM (inactive),> 100 µM (inactive),–,–
COc1cc(C)c(/C=C2/N=C(c3ccccc3)OC2=O)c([N+](=O)[O-])c1OC,> 100 µM (inactive),> 100 µM (inactive),73.6 µM (inactive),> 100 µM (inactive),> 100 µM (inactive),> 100 µM (inactive),> 100 µM (inactive),> 100,> 100 µM (inactive),> 100 µM (inactive),> 100 µM (inactive),> 100 µM (inactive),> 100 µM (inactive),> 100 µM (inactive),> 100 µM (inactive),> 100 µM (inactive),89.1 µM (inactive),> 100 µM (inactive),> 100 µM (inactive),–
CC1OC(OC2C(O[C@H]3CC[C@@H]4C(=CC[C@@H]5[C@@]4(C)C(=O)C[C@]4(C)[C@@H]([C@H](C)CC[C@@H](O)C(C)(C)O)CC[C@@]54C)C3(C)C)OC(CO)C(O)C2O)C(O)C(O)C1O (stereo partly specified),> 100 µM (inactive),> 100 µM (inactive),79.3 µM (inactive),> 100 µM (inactive),> 100 µM (inactive),> 100 µM (inactive),> 100 µM (inactive),> 100,> 100 µM (inactive),> 100 µM (inactive),> 100 µM (inactive),49 µM (inactive),> 100 µM (inactive),> 100 µM (inactive),> 100 µM (inactive),> 100 µM (inactive),> 100 µM (inactive),> 100 µM (inactive),> 100 µM (inactive),–
Fc1cccc(Cl)c1C1SCc2nc3cc4ccccc4cc3n21 (stereo unspecified),> 100 µM (inactive),99.1 µM (inactive),> 100 µM (inactive),> 100 µM (inactive),> 100 µM (inactive),> 100 µM (inactive),68.5 µM (inactive),> 100,–,35 µM (inactive),89.1 µM (inactive),> 100 µM (inactive),61.5 µM (inactive),> 100 µM (inactive),82.8 µM (inactive),> 100 µM (inactive),–,> 100 µM (inactive),28.9 µM (inactive),8.32 µM (inactive)
CCNc1ncnc2c1nnn2CC,> 100 µM (inactive),> 100 µM (inactive),> 100 µM (inactive),> 100 µM (inactive),> 100 µM (inactive),> 100 µM (inactive),> 100 µM (inactive),> 100,> 100 µM (inactive),> 100 µM (inactive),> 100 µM (inactive),> 100 µM (inactive),> 100 µM (inactive),> 100 µM (inactive),> 100 µM (inactive),> 100 µM (inactive),77.1 µM (inactive),> 100 µM (inactive),> 100 µM (inactive),–
C=C1C(=O)C23CC1CCC2C12CO[C@H](O)[C@H]1C(C)(C)[C@H](OC(C)=O)C[C@H]2OC3=O (stereo partly specified),> 100 µM (inactive),15.2 µM (inactive),6.14 µM (inactive),15.1 µM (inactive),15.1 µM (inactive),22.6 µM (inactive),14.8 µM (inactive),14.6,16.6 µM (inactive),–,13.4 µM (inactive),5.9 µM (inactive),19.8 µM (inactive),27.7 µM (inactive),20 µM (inactive),15.3 µM (inactive),46.2 µM (inactive),30.3 µM (inactive),> 100 µM (inactive),–
